Series [1] in a line: in vivo. As to conditions: both sexes, ICR, mouse, in vivo, po. An excerpt:
(§1) Experimental materials: PAC-1 needle crystal (prepared according to the method of Quinn P. Peterson et al., J. Med. Chem. 2009, 52, 5721-5731), batch number 20090818.
(§2) Experimental animals and feeding conditions: ICR mice, half male and half female. Body weight 20±2 g, provided by Beijing Weitonglihua Experimental Animal Technology Co., Ltd., SPF grade feeding, certificate: SCXK (Beijing) 2006-0009. Particulate feed for mouse breeding was provided by Beijing Ke'ao Xieli Feed Co., Ltd. Animals were housed in barrier-level (Grade 2) animal lab in Beijing Anzhen Hospital, fluorescent lighting, 12 h light and dark cycle, room ? temperature 22˜24 ? , humidity 40-47%, air supply 10-12 times/h, Laboratory license number: SYXK (Beijing) 2005-0028. Mice were housed in clear plastic boxes with 5 per cage separated by gender.
(§3) The method of preparing the test drug: PAC-1 needle crystal was placed in a mortar to be finely ground. A propriate amount of PAC-1 crystal was accurately weighed, which was formulated with 0.5% CMC-Na to reach the desired concentration.
(§4) Animals grouping: After fasting (except for water) for 11 h, according to body weight, animals were randomly divided into groups of 10 with 5 males and 5 females. There were 8 groups in total. […]. One-time intragastric administration was used in the experiment. The negative control group was orally administered an equal volume of 0.5% CMC-Na. The animals started feeding at 3 hours after administration.
(§5) Observed indicators: immediately after administration, the observation of the responses of the animals to drugs (such as: general performance, respiration, activity, with or without convulsions, righting reflex, pain reflex, response to external stimuli and other indicators) was started. When observing and recording the symptom of toxic reaction after animal administration, the time and duration of toxicity, recovery time, and the time of animal death, the animal was immediately dissected grossly, visually observing the main organs (heart, liver, spleen, lung and kidney, stomach) to see if there is congestion, increased volume, hardens, discoloration. For survival animals, they were observed and recorded day by day whether there was delayed death and delayed toxicity reaction in 7 days. The animals were weighed and fed once every 2 days. After finishing observation for 7 days, the survival animals were dissected grossly and the situations of their main organs were observed. […]

The test system of series [2] is ICR mice. The experiment in a line: in vivo.
Source text: as §1, §2, §3, §4, §5

Series [3] can be described thus: In vivo pharmacokinetic comparison in rats. As to conditions: male Wistar rats, 60 mg/Kg, n = 6. As for the experimental part: Twelve male Wistar rats were randomly divided into ZYS-1 group and PAC-1 group. These rats were fasted for 12 hours before administration, and fed water freely. After ZYS-1 and PAC-1 needle crystal were given at the dose of 60 mg/Kg, 0.5 mL orbital blood was collected at 0, 5, 20, 30, 45, 60, 120, 180, 240, 360, 480, 720 mins, centrifuged at 5000 r/min for 5 min. 200 μL plasma was taken. The plasma was added 3 mL acetone and vortexed for 1 min. After centrifuging at 15000 r/min for 5 min, the supernatant was collected and dried under nitrogen at 37° C., to which 200 μL acetonitrile was added to be reconstituted. After sonication for 10 min, the mixture was vortexed for 1 min, and filtered through 0.45 microporous filter membrane. The filtrate was tested by HPLC, and the plasma concentration at each time point was calculated.

The nature of series [4]: Solubility comparison of ZYS-1 and PAC-1 needle crystal (HPLC). The format is physicochemical. As to conditions: room temperature.
Experiment in series [5]: as above
Particulars: organic solvent or mixture, thermodynamic from solid, room temperature. It is filed as physicochemical. As for the experimental part: The appropriate amounts of ZYS-1 and PAC-1 needle crystal were dissolved into the appropriate amount of methanol, absolute ethanol, 95% ethanol, acetonitrile, ethyl ether, ethyl acetate, propanol, acetone, respectively, and sonicated for 1 hour, then left at room temperature for 24 hours to obtain the oversaturated solution. After centrifugation at 4000 r/min for 5 min, the supernatant was diluted appropriately and filtered through a 0.45 μm needle filter. The concentration was determined by HPLC and the solubility was calculated.

Series [6] concerns Murine Lewis lung carcinoma cell line. Kind of series: Spontaneous metastatic cancer in mice (Lewis lung carcinoma). As to conditions: 100 mg/kg/d, intragastric administration. As to the method:
The tumors growed to 1000 mm^3 and then were randomly divided into groups for adminstration, the groups were treated after three weeks. A total of 4 groups including ZYS-1 high, medium and low (100, 50, 25 mg/kg/d, intragastric administration) and positive control (gefitinib 100 mg/kg/d, intragastric administration) groups were set. The efficacy of ZYS-1 was evaluated in terms of general survival status (food intake, activity, hair etc.), tumor inhibition rate and metastasis inhibition rate.
The curve of tumor growth was plotted. On the next day after completing the treatment cycle, the animal was weighed. After collecting the blood, the animal was sacrificed. The tumor tissue was stripped, weighed, and the tumor inhibition rate was calculated. Store at −80 ? .
Metastasis rate=Number of mice with metastasis/Total number of mice×100%
Inhibition rate of metastasis loci=(average number of metastasis loci in the control group−average number of metastasis loci in the experimental group)/average number of metastasis loci in the control group×100%

Where [7] appears, read: both, ICR, mouse, in vivo, 7 days.
The mark [8] stands for this setting: one-time intragastric administration to mice.

Each structure is given as a SMILES string. ≈ marks a conversion by molar mass, not a printed value.

Usually LD50 stands for the dose expected to kill half of the subjects tested. The low end stands for greater toxicity, the high end for lower toxicity. In general, Cmax refers to the highest concentration seen after dosing. As a reminder, the Tmax is the time at which the peak concentration occurs. A word on the Solubility: it is how much of the substance goes into solution per volume. Read a low Solubility as a poorly soluble substance. For orientation: solubility means how much of the substance goes into solution per volume.

Consider `C=CCc1cccc(/C=N/NC(=O)CN2CCN(Cc3ccccc3)CC2)c1O` [PAC-1 needle crystal, 1-Piperazineacetic acid, 4-(phenylmethyl)-2-[[2-hydroxy-3-(2-propen-1-yl)phenyl]methylene], reference compound], for which the LD50 at 7 days in series [1] (LD50 95% confidence limit) is 451 to 675 mg/kg. In addition, the LD50 at 7 days in series [1] (acute toxicity (LD50) dose) was 552 mg/kg. In series [2] (setting [7]), the 0% mortality dose was 240.1 mg/kg, the 100% mortality dose result is given as “greater than 1000 mg/kg” and the “dose without apparent toxicity” value is listed as 117.7 mg/kg. Besides, in series [2] (setting [8]), the “time for most survival animals to return to normal after dosing” value is recorded as not above 3 h and the “time of death after administration (mainly)” value is listed as 30˜60 min. Also, in series [3], the “AUC(0-tn)” value amounted to 320.2186357 ± 127.0767162 µg·h/mL, the “AUC(0-∞)” value was determined as 578.8993071 ± 466.830172 µg·h/mL, the Cmax was 2078.7579 ± 950.561 ng/mL and the “MRT(0-tn)” value was found to be 254.3166 ± 180.2413 h. In addition, in series [3], the “MRT(0-∞)” value worked out at 1501.7189 ± 1808.4213 h, the Tmax is recorded as 52.5000 ± 12.5499 h, the T½ka amounted to 15.4260 ± 11.8916 h and the T½α stood at 134.7563 ± 63.3796 h. Also, in series [3], the V/F worked out at 0.0318 ± 0.0177 L, the ka was 0.0720 ± 0.0468 h⁻¹, the ke was determined as 0.0062 ± 0.0029 h⁻¹ and the lagtime stood at 8.8081 ± 4.8496 h. For the same compound, the Solubility in series [4] (Water) is listed as 0.0015 mg/mL (≈ 0.00382 mM). The solubility at 24 h in series [4] (chloroform, organic solvent or mixture, thermodynamic from solid) amounted to 290 mg/mL (≈ 740 mM). Moreover, in series [5] (95% ethanol), the solubility at 24 h came out at 16.4 mg/mL (≈ 41.9 mM). Moreover, the solubility at 24 h in series [5] (absolute ethanol) came to 18.9 mg/mL (≈ 48.3 mM). In series [5] (acetone), the solubility at 24 h stood at 81.8 mg/mL (≈ 208 mM). For the same compound, the solubility at 24 h in series [5] (acetonitrile) is 20.7 mg/mL (≈ 52.8 mM). In series [5] (diethyl ether), the solubility at 24 h was 3.51 mg/mL (≈ 8.94 mM). For the same compound, in series [5] (ethyl acetate), the solubility at 24 h is 33.4 mg/mL (≈ 85 mM). In addition, the solubility at 24 h in series [5] (methanol) turned out to be 28.2 mg/mL (≈ 71.8 mM). Besides, the solubility at 24 h in series [5] (propanol) came to 16 mg/mL (≈ 40.9 mM).

Consider `COc1cc2ncnc(Nc3ccc(F)c(Cl)c3)c2cc1OCCCN1CCOCC1` [Gefitinib, gefitinib, reference compound], for which, in series [6], the “Body weight of the animals, End” value was 30.5 ± 5.0 g; the Metastasis rate is reported as 100%; the “Number of lung (metastasis loci)” value was found to be 6.9 ± 3.7; the Tumor weight was found to be 2.1036 ± 0.3382 g.

The record behind these values is patent publication US20180201594A1, “Compound pac-1 or salt thereof and pharmaceutical composition comprising same” (priority 2015, published 2018).
